Measured values taken from article PMC7822874, “Chemoprotective antimalarials identified through quantitative high-throughput screening of Plasmodium blood and liver stage parasites” (Scientific Reports, 2021).
Where two headings read alike, the source gives them in different places.

Tests used:
HepG2-A16-CD81EGFP cells = settings: averaged response (percent)
[1] = tested on: P. falciparum Dd2 (clone B2) asexual blood stage parasites; experiment: P. falciparum Dd2 asexual blood stage SYBR Green-I 72 h proliferation assay (qHTS); assay type: cell-based, Plasmodium falciparum; settings: averaged P. falciparum asexual blood stage potency, log10 of AC50 in M
[2] = tested on: P. berghei-ANKA-GFP-LucCON liver stage parasites in HepG2-A16-CD81EGFP cells; experiment: P. berghei liver stage Pb-Luc assay, Method 1 (UCSD, 1536-well); assay type: cell-based, Plasmodium berghei; settings: P. berghei liver stage, averaged response (percent); for Average P. berghei 1 µM response (%): the header list (r8) defines it as the 1 µM dose
[3] = HepG2, the header list (r10) describes it as the 1 µM dose

SMILES	Average HepG2 3 µM response( %) (HepG2-A16-CD81EGFP cells; HepG2, 3 µM dose) [%]	Average HepG2 3 µM response( %) (HepG2-A16-CD81EGFP cells; [3]) [%]	Pf ABS Log AC50 (M) [1] [M]	Average P. berghei 3 µM response( %) [2] [%]	Average P. berghei 1 µM response (%) [2] [%]
CCOC(=O)Cn1c2c(c(=N)c3c1CCC3)CCCC2 [MLS000702567]	104	104	-4.912	104	95
CC1CCN(C(=O)CSc2nc(-c3ccc(C(C)C)cc3)no2)CC1 [NCGC00127906]	105	105	-5.925	103	130
Clc1ccc(-c2nnc(N3CCCC3)nn2)cc1 [MLS000038815]	104	104	-5.512	153	160
Oc1ccc(C2NCc3ccccc3-n3cccc32)cc1Cl (centres unmarked) [MLS000878874]	105	105	-5.925	82	96
CN1CCC(NCCC(c2ccc(F)cc2)c2ccc(Cl)cc2)CC1 (centres unmarked) [MLS001215866]	100	100	-5.437	70	103
COc1cccc(CNCC(O)(c2ccc(Cl)cc2)c2ccc(Cl)cc2)c1 [MLS000325699]	101	105	-5.812	98	112
CN(C)c1cc[n+](CC(=O)c2cccs2)cc1 [MLS001207444]	101	101	-5.387	62	89
COc1ccc(CCN2CCC(Nc3nc4ccccc4n3Cc3ccc(F)cc3)CC2)cc1 [NCGC00016913]	100	99	-5.658	43	54
CCOCCCNc1nc2cc(OC)c(OC)cc2c2nc(-c3ccccc3)nn12 [NCGC00112857]	99	97	-6.675	104	109
O=C(Nc1ccc(Cl)cc1)Nc1ccc2c(c1)N1CCN=C1S2 [MLS000078440]	94	98	-5.612	69	
O=C1NCc2ccccc2CC12CCCN(Cc1ccccc1)C2 (centres unmarked) [NCGC00377595]	104	103	-4.980	106	116
O=c1cc(-c2ccccc2)c2ccc3c(c2o1)CN(Cc1ccccc1)CO3 [NCGC00116340]	100	102	-5.575	76	87
